According to PubChem BioAssay AID1918946 (Molecular Pharmacology Branch, DTP, NCI, 2023):
pIC50: −log10 of the molar value.

Test system: 885512-296-R-J2-PDC complex spheroid viability
Experiment: Anticancer human tumor 885512-296-R-J2-PDC patient-derived breast carcinoma cell line growth inhibition
Settings: for pIC50: curve of first compound; for viability, T/C: stronger effect = lower value
Procedure, shortened: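 Multicellular complex spheroids of tumor cells with human endothelial cells (HUVEC) and mesenchymal stem cells; the LSD1 inhibitor iadademstat was combined with standard-of-care or investigational agents. Top concentration at or near clinical Cmax, half-log dilutions; final DMSO ≤0.25%.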

[1] = second compound 0.1 µM, first compound 0.000316 µM
[2] = second compound 0.1 µM, first compound 0.001 µM
[3] = second compound 0.1 µM, first compound 0.00316 µM
[4] = second compound 0.1 µM, first compound 0.01 µM
[5] = second compound 0.1 µM, first compound 0.0316 µM
[6] = second compound 0.1 µM, first compound 0.1 µM
[7] = second compound 0.316 µM, first compound 0.000316 µM
[8] = second compound 0.316 µM, first compound 0.001 µM
[9] = second compound 0.316 µM, first compound 0.00316 µM
[10] = second compound 0.316 µM, first compound 0.01 µM
[11] = second compound 0.316 µM, first compound 0.0316 µM
[12] = second compound 0.316 µM, first compound 0.1 µM
[13] = second compound 1 µM, first compound 0.000316 µM
[14] = second compound 1 µM, first compound 0.001 µM
[15] = second compound 1 µM, first compound 0.00316 µM
[16] = second compound 1 µM, first compound 0.01 µM
[17] = second compound 1 µM, first compound 0.0316 µM
[18] = second compound 1 µM, first compound 0.1 µM
[19] = second compound 3.16 µM, first compound 0.000316 µM
[20] = second compound 3.16 µM, first compound 0.001 µM
[21] = second compound 3.16 µM, first compound 0.00316 µM
[22] = second compound 3.16 µM, first compound 0.01 µM
[23] = second compound 3.16 µM, first compound 0.0316 µM
[24] = second compound 3.16 µM, first compound 0.1 µM
[25] = second compound 10 µM, first compound 0.000316 µM
[26] = second compound 10 µM, first compound 0.001 µM
[27] = second compound 10 µM, first compound 0.00316 µM
[28] = second compound 10 µM, first compound 0.01 µM
[29] = second compound 10 µM, first compound 0.0316 µM
[30] = second compound 10 µM, first compound 0.1 µM
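Note: spheroids exposed to agents for 7 days before viability read.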

Row | SMILES | pIC50 (second compound 0.1 µM) | pIC50 (second compound 0.316 µM) | pIC50 (second compound 1 µM) | pIC50 (second compound 3.16 µM) | pIC50 (second compound 10 µM) | viability, T/C [1] [%] | viability, T/C [2] [%] | viability, T/C [3] [%] | viability, T/C [4] [%] | viability, T/C [5] [%] | viability, T/C [6] [%] | viability, T/C [7] [%] | viability, T/C [8] [%] | viability, T/C [9] [%] | viability, T/C [10] [%] | viability, T/C [11] [%] | viability, T/C [12] [%] | viability, T/C [13] [%] | viability, T/C [14] [%] | viability, T/C [15] [%] | other results
1 | Cn1ncnc1C1c2n[nH]c(=O)c3cc(F)cc(c23)NC1c1ccc(F)cc1 (stereo not given) + NC1CC1c1ccc(-c2cccc(O)c2)cc1 | 7.26 | 7.29 | 7.39 | 7.55 | 7.81 | 138 | 114 | 98.7 | 86.2 | 63.6 | 35.8 | 112 | 121 | 97 | 89.2 | 64.3 | 30.3 | 118 | 114 | 101 | viability, T/C [16]: 86.3%; viability, T/C [17]: 53.7%; viability, T/C [18]: 32.3%; viability, T/C [19]: 105%; viability, T/C [20]: 110%; viability, T/C [21]: 94.2%; viability, T/C [22]: 77.4%; viability, T/C [23]: 46.7%; viability, T/C [24]: 27.2%; viability, T/C [25]: 72.4%; viability, T/C [26]: 80.2%; viability, T/C [27]: 70.5%; viability, T/C [28]: 55.5%; viability, T/C [29]: 39.1%; viability, T/C [30]: 20.5%
2 | CC(C)CC(NC(=O)CNC(=O)c1cc(Cl)ccc1Cl)B1OC(=O)CC(CC(=O)O)(C(=O)O)O1 (stereo not given) + NC1CCC(NC2CC2c2ccccc2)CC1 | 8.19 | 8.16 | 8.18 | 8.19 | 8.29 | 148 | 136 | 102 | 16.9 | 4.82 | 8.2 | 125 | 126 | 106 | 23.3 | 3.92 | 3.86 | 121 | 131 | 103 | viability, T/C [16]: 20.4%; viability, T/C [17]: 4.02%; viability, T/C [18]: 6.64%; viability, T/C [19]: 124%; viability, T/C [20]: 117%; viability, T/C [21]: 110%; viability, T/C [22]: 14.4%; viability, T/C [23]: 5.03%; viability, T/C [24]: 1.02%; viability, T/C [25]: 107%; viability, T/C [26]: 107%; viability, T/C [27]: 76.3%; viability, T/C [28]: 12%; viability, T/C [29]: 2.47%; viability, T/C [30]: 0.56%
